In patent US20160067247A1, “NOVEL USE” (GlaxoSmithKline Intellectual Property (No.2) Limited, priority 2012, published 2016):
Where two headings read alike, the source gives them in different places.

Tested on: AKT phosphorylation (pAKT) at position Ser473
Assay: FBS stimulated AKT (S473) phosphorylation in primary human lung fibroblasts, MSD assay (Example 2)
Assay type: cell-based
Details: Fibroblast, 0.5 h, 20% FBS 30 minute, read-out: mean pIC50, AKT (S473) phosphorylation (converted)
Experimental: Primary human fibroblasts were isolated by explant culture from non-IPF lung tissue, obtained post mortem following sudden trauma, and IPF lung tissue obtained from the lungs of IPF patients which were removed for transplantation or biopsy. Explants were cultured in DMEM containing high glucose and sodium pyruvate (PAA laboratories, catalogue #E15-011) with penicillin/streptomycin (Sigma #P4333), amphotericin B (Sigma #A2942), L-glutamine (Gibco #25030) and 20% FBS (foetal bovine serum, Lonza, catalogue #14-801F, Lot #1SB003) at 37° C., 100% humidity, 10% CO2. Cells were designated non-IPF (UCL marked 0110 and 0610) and IPF (UCL marked 0207, 0208, 0308, 0507 and 0508) based on medical diagnosis.
Human lung primary fibroblast cell lines were cultured in DMEM containing high glucose and sodium pyruvate supplemented with L-glutamine, penicillin/streptomycin and 10% FBS (complete DMEM) at 37° C., 100% humidity, 10% CO2. Cells were split into T175 flasks (NUNC #159910) 2 to 3 days prior to assay set-up at a density which yields approximately 70-80% confluence at time of harvest for assay. Cells were harvested using 0.25% trypsin-EDTA (Gibco #25300), washed and re-suspended in complete DMEM. Cell counts were performed on the cell suspension using a Handheld Automated Cell Counter (Millipore #PHCC00000) with 60 μm sensors (Millipore #PHCC60050). […]

SMILES: COc1ncc(-c2ccc3nccc(-c4ccnnc4)c3c2)cc1NS(=O)(=O)c1ccc(F)cc1F [2,4-difluoro-N-{2-(methyloxy)-5-[4-(4-pyridazinyl)-6-quinolinyl]-3-pyridinyl}benzenesulfonamide]
- IC50 (IPF fibroblasts, n=5 cell lines (+/-0.1 SEM)): 1.58 nM
- IC50 (primary human non-IPF fibroblasts, n=2 lines (range 8.8-9.4)): 0.794 nM
